Laboratory results: paper PMC3034772 (Pharmaceutical research, 2010)
“And” between values parts separate entries of the source, which are not always exact repeats. Equal values may be shown once. Read-outs that look alike come from different tables or passages of the source.

Key:
[1] = Charge class Q, dominant calculated charge state at pH 7.4; assay type: physicochemical
[2] = PAMPA; for Pm^7.4: pH 7.4
[3] = cited from earlier work
[4] = In combo PAMPA-BBB model, calculated log Po in situ
[5] = mouse, in vivo
[6] = cited from earlier work; remark: listed apart in the source
[7] = in vivo
[8] = for Pm^7.4: pH 7.4
[9] = mouse, in vivo; cited from earlier work
physchem [10] = assay: physchem
physchem [11] = assay: physchem; remark: listed apart in the source
[12] = In situ brain perfusion, individual literature values; details: efflux inhibition CsA; from literature PS
[13] = dominant calculated concentration fraction of the drug in a charge state
[14] = difference observed minus calculated, external set, no efflux inhibition

SMILES	Q (charge class) [1, 13]	log PABL [2]	log Po [2]	log Ppara [2]	Pm^7.4 [2]	obs–calc (log Po^in situ) [4, 14]	also measured
COc1ccc(CCN2CCC(Nc3nc4ccccc4n3Cc3ccc(F)cc3)CC2)cc1 [Astemizole]	+	−3.54	−1.39	−6.54	2422		pKa ([3]; ref [46]): 8.60; pKa ([3]; second pKa column, ref [46]): 5.84; obs–calc (log Po^in situ) ([4]; efflux inhibition mdr1a(−/−)): −1.2; obs–calc (log Po^in situ) ([4]; no efflux inhibition): −1.3
CCC12CCN(CC3(O)CC3)C(Cc3ccc(O)cc31)C2(C)C (stereo not drawn) [Bremazocine]							Q (charge class) [1]: +; log Po^in situ (obs) [5]: −2.76; PS ([6]; in vivo): 81 10^−4 mLg^−1s^−1; log PS ([6]; in vivo): −2.09; log Po^in situ (obs) [7]: −2.96; log Po ([8]; PAMPA-BBB intrinsic permeability, Type I, collected under 1.5 μL conditions but scaled to the 3 μL level): −2.87; log PABL ([8]; aqueous boundary layer permeability, Type I, 1.5 μL conditions): −3.00; PS [9]: 129 10^−4 mLg^−1s^−1; log PS [9]: −1.89; obs–calc (log Po^in situ) [4]: 0.4 and 0.2
O=C1CC2(CCCC2)CC(=O)N1CCCCN1CCN(c2ncccn2)CC1 [Buspirone]	+						pKa (physchem [10]; pKa): 7.59
COc1cccc2c1C(=O)c1c(O)c3c(c(O)c1C2=O)C[C@@](O)(C(C)=O)C[C@@H]3O[C@H]1C[C@H](N)[C@H](O)[C@H](C)O1 [Daunomycin]		−4.38	−2.71	−6.91	10		Q (charge class) [1]: +; pKa ([3]; ref [39]): 12.00; pKa ([3]; second pKa column, ref [39]): 9.70; obs–calc (log Po^in situ) [4]: 0.8
CC(C)[C@H](NC(=O)[C@H](CCC(=O)O)NC(=O)[C@H](Cc1ccccc1)NC(=O)[C@@H](C)NC(=O)[C@@H](N)Cc1ccc(O)cc1)C(=O)N[C@H](C(=O)NCC(N)=O)C(C)C [Deltorphin II]							log Po^in situ (obs) [5]: −6.36; PS ([6]; in vivo): 0.3 10^−4 mLg^−1s^−1; log PS ([6]; in vivo): −4.56; log Po^in situ (obs) [7]: −6.56; log Po ([8]; PAMPA): −6.51; Pm^7.4 ([8]; PAMPA): <0.01; PS [9]: 0.4 10^−4 mLg^−1s^−1; log PS [9]: −4.36
O=c1[nH]c2ccccc2n1CCCN1CCC(n2c(=O)[nH]c3cc(Cl)ccc32)CC1 [Domperidone]	+						PS ([6]; in vivo): 5 10^−4 mLg^−1s^−1; log PS ([6]; in vivo): −3.29; pKa (physchem [11]): 9.38; PS [9]: 16 10^−4 mLg^−1s^−1
CN(C)CCC=C1c2ccccc2COc2ccccc21 [Doxepin]	+	−3.13	−1.60	−6.47	223		pKa ([3]; ref [11]): 9.45; obs–calc (log Po^in situ) ([4]; no efflux inhibition): 0.3
CN1C[C@H](C(=O)N[C@]2(C)O[C@@]3(O)[C@@H]4CCCN4C(=O)[C@H](Cc4ccccc4)N3C2=O)C=C2c3cccc4[nH]cc(c34)C[C@H]21 [Ergotamine]		−3.73	−2.50	−6.03	1823		Q (charge class) [1]: 0; PS ([6]; in vivo): 87 10^−4 mLg^−1s^−1; log PS ([6]; in vivo): −2.06; log Po^in situ (obs) [7]: −3.82; pKa (physchem [11]): 9.49; obs–calc (log Po^in situ) [4]: 0.1
CC(C)(C)NC(=O)[C@@H]1CN(Cc2cccnc2)CCN1C[C@@H](O)C[C@@H](Cc1ccccc1)C(=O)N[C@H]1c2ccccc2C[C@H]1O [Indinavir]	0					−0.4	pKa ([3]; ref [11]): 4.91; log Po ([8]; PAMPA): −5.17; obs–calc (log Po^in situ) ([4]; efflux inhibition mdr1a(−/−)): 0.3
N[C@@H](Cc1ccc(O)c(O)c1)C(=O)O [L-DOPA]	±	−4.47	−7.81		0.01	0.7 and 0.9	pKa ([3]; ref [39]): 8.77
CN(C)C(=O)C(CCN1CCC(O)(c2ccc(Cl)cc2)CC1)(c1ccccc1)c1ccccc1 [Loperamide]		−3.19	−2.67	−12	102		Q (charge class) [1]: +; log Po^in situ (obs) [5]: −2.52
N[C@@H](Cc1ccc(N(CCCl)CCCl)cc1)C(=O)O [Melphalan]		−4.65	−7.51	−7.71	0.03		Q (charge class) [1]: ±; PS ([6]; in vivo): 5 10^−4 mLg^−1s^−1; log PS ([6]; in vivo): −3.28; log Po^in situ (obs) [7]: −5.27; obs–calc (log Po^in situ) [4]: 0.0
CN1CCCCC1CCN1c2ccccc2Sc2ccc([S+](C)[O-])cc21 (stereo not drawn) [Mesoridazine]	+	−3.26	−4.33	−6.21	14	0.8	pKa (physchem [10]; pKa): 7.79
CN(Cc1cnc2nc(N)nc(N)c2n1)c1ccc(C(=O)N[C@@H](CCC(=O)O)C(=O)O)cc1 [Methotrexate]	±						pKa (physchem [10]; pKa): 5.55; log PABL ([8]; PAMPA): −4.73; Pm^7.4 ([8]; PAMPA): 0.001
Oc1ccc2c3c1O[C@H]1c4[nH]c5ccccc5c4C[C@@]4(O)[C@@H](C2)N(CC2CC2)CC[C@]314 [Naltrindole]			−2.23	−6.20	659		Q (charge class) [1]: +; log Po^in situ (obs) [5]: −3.03; PS [9]: 104 10^−4 mLg^−1s^−1; log PS [9]: −1.98
NNCCc1ccccc1 [Phenelzine]	+	−4.58	−2.20	−6.86	2236	−1.9	pKa (physchem [11]): 7.66
COc1cc2nc(N3CCN(C(=O)c4ccco4)CC3)nc(N)c2cc1OC [Prazosin]							pKa (physchem [10]; pKa): 6.79
CCCN(CCC)S(=O)(=O)c1ccc(C(=O)O)cc1 [Probenecid]	−	−3.52	−2.97	−6.10	0.06		pKa ([3]; ref [38]): 3.16; obs–calc (log Po^in situ) ([4]; efflux inhibition mdr1a(−/−)): −0.6; obs–calc (log Po^in situ) ([4]; no efflux inhibition): −0.7
OCCOCCN1CCN(C2=Nc3ccccc3Sc3ccccc32)CC1 [Quetiapine]	0	−3.88	−2.98	−6.02	583	0.2	pKa ([3]; ref [38]): 7.30; pKa ([3]; second pKa column, ref [38]): 2.27
CC(C)c1nc(CN(C)C(=O)N[C@H](C(=O)N[C@@H](Cc2ccccc2)C[C@H](O)[C@H](Cc2ccccc2)NC(=O)OCc2cncs2)C(C)C)cs1 [Ritonavir]	0					−0.7 and −0.6	pKa (physchem [10]; pKa): 2.42; log Po ([8]; PAMPA): −4.24; Pm^7.4 ([8]; PAMPA): 57; obs–calc (log Po^in situ) ([4]; efflux inhibition mdr1a(−/−)): 0.0 and 0.2
CCCN1C[C@H](C)N([C@H](c2ccc(C(=O)N(CC)CC)cc2)c2cccc(OC)c2)C[C@H]1C [SNC121]							Q (charge class) [1]: +; log Po^in situ (obs) [5]: −2.96; log Po ([8]; PAMPA): −2.91; Pm^7.4 ([8]; PAMPA): 201; PS [9]: 363 10^−4 mLg^−1s^−1; log PS [9]: −1.44
CNS(=O)(=O)Cc1ccc2[nH]cc(CCN(C)C)c2c1 [Sumatriptan]	+	−4.65	−4.86	−7.51	0.4	0.0	pKa (physchem [11]): 9.64
CC(C)(C)c1ccc(C(O)CCCN2CCC(C(O)(c3ccccc3)c3ccccc3)CC2)cc1 (stereo not drawn) [Terfenadine]	+	−3.76	−0.54	−5.70		−0.9	log PS ([6]; efflux inhibition CsA): −1.39; log Po^in situ (obs) [12]: −0.92; obs–calc (log Po^in situ) ([4]; efflux inhibition CsA): 0.0
CSc1ccc2c(c1)N(CCC1CCCCN1C)c1ccccc1S2 (stereo not drawn) [Thioridazine]	+	−2.84	−1.27	−6.23	1972		pKa ([3]; ref [11]): 8.82; obs–calc (log Po^in situ) ([4]; no efflux inhibition): −0.8
O=c1n(CCCN2CCN(c3cccc(Cl)c3)CC2)nc2ccccn12 [Trazodone]	0	−3.90	−2.94	−5.99	534		pKa (physchem [11]): 7.46; obs–calc (log Po^in situ) ([4]; no efflux inhibition): 0.0
CN1CCN(CCCN2c3ccccc3Sc3ccc(C(F)(F)F)cc32)CC1 [Trifluoperazine]	+	−3.32	−1.96	−5.94	1442	−1.1	pKa (physchem [11]): 8.22
CC(=O)CC(c1ccccc1)c1c(O)c2ccccc2oc1=O (stereo not drawn) [Warfarin]	−	−3.04	−3.21	−8.00	1.4		pKa (physchem [10]): 4.75; obs–calc (log Po^in situ) [4]: 0.4 and 0.5
Cc1cn([C@H]2C[C@H](N=[N+]=[N-])[C@@H](CO)O2)c(=O)[nH]c1=O [Zidovudine]	0						pKa (physchem [10]; pKa): 9.61; log Po ([8]; PAMPA): −6.24
N[C@H](Cc1ccc(F)cc1)C(=O)O [p-F-Phenylalanine(D)]							log Po^in situ (obs) [5]: −4.81; PS ([6]; in vivo): 14 10^−4 mLg^−1s^−1; log PS ([6]; in vivo): −2.85; log Po^in situ (obs) [7]: −4.84
N[C@@H](Cc1ccc(F)cc1)C(=O)O [p-F-Phenylalanine(L)]							log Po^in situ (obs) [5]: −3.45; PS [9]: 347 10^−4 mLg^−1s^−1; log PS [9]: −1.46
